Data as given in patent publication US20050112573A1, “Method of detecting toxic substance” (priority 2001, published 2005).

Tested on: yeast genes (level of expressed mRNA)
Assay: DNA chip analysis of expressed mRNA of yeast genes after 2 h culture with a toxic chemical substance
Assay type: cell-based, Saccharomyces cerevisiae S288C
Settings: for The level of expressed mRNA in the presence of chemical substance/ (ratio to absence of chemical substance): stress protein genes, DNA chip
Procedure, shortened: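 S. cerevisiae S288C grown at 25° C in YPD; toxicant added at log phase at growth-inhibitory, non-lethal levels for 2 h, untreated cells as control. Poly(A) mRNA reverse-transcribed with Cy3/Cy5-dUTP, hybridized to whole-genome chip at 65° C >12 h; value is fluorescence ratio versus untreated.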

## C[S+](C)[O-] [(15), dimethylsulfoxide]
Yeast gene YJL073W
  The level of expressed mRNA in the presence of chemical substance/The level of expressed mRNA in the absence of chemical substance: 2.6
Yeast gene YJL089W
  The level of expressed mRNA in the presence of chemical substance/The level of expressed mRNA in the absence of chemical substance: 6.4
Yeast gene YJL096W, mitochondria-located protein genes, 2 h culture with chemical
  The level of expressed mRNA in the presence of chemical substance/ (ratio to absence), gene YJL096W: 1.0
Yeast gene YJL116C
  The level of expressed mRNA in the presence of chemical substance/The level of expressed mRNA in the absence of chemical substance: 1.0
Yeast gene YJL158C
  The level of expressed mRNA in the presence of chemical substance/ (ratio to absence of chemical substance): 1.7
Yeast gene YJL167W, ratio of DNA chip fluorescence intensity to that without chemical substance
  The level of expressed mRNA in the presence of chemical substance/ (in its absence), gene YJL167W: 1.6
Yeast gene YJL180C, mitochondria-located protein genes, 2 h culture with chemical
  The level of expressed mRNA in the presence of chemical substance/ (ratio to absence), gene YJL180C: 0.6
Yeast gene YJL216C, ratio of DNA chip fluorescence intensity to that without chemical substance
  The level of expressed mRNA in the presence of chemical substance/ (in its absence), gene YJL216C: 1.2
Yeast gene YJR004C
  The level of expressed mRNA in the presence of chemical substance/The level of expressed mRNA in the absence of chemical substance: 3.2
Yeast gene YJR086W
  The level of expressed mRNA in the presence of chemical substance/The level of expressed mRNA in the absence of chemical substance: 2.0
Yeast gene YJR090C
  The level of expressed mRNA in the presence of chemical substance/ (ratio to absence of chemical substance): 1.6
Yeast gene YKL008C
  The level of expressed mRNA in the presence of chemical substance/The level of expressed mRNA in the absence of chemical substance: 1.3
Yeast gene YKL013C
  The level of expressed mRNA in the presence of chemical substance/The level of expressed mRNA in the absence of chemical substance: 1.2
Yeast gene YKL039W
  The level of expressed mRNA in the presence of chemical substance/The level of expressed mRNA in the absence of chemical substance: 3.1
Yeast gene YKL041W
  The level of expressed mRNA in the presence of chemical substance/The level of expressed mRNA in the absence of chemical substance: 1.0
Yeast gene YKL096W
  The level of expressed mRNA in the presence of chemical substance/The level of expressed mRNA in the absence of chemical substance: 2.3
Yeast gene YKL139W
  The level of expressed mRNA in the presence of chemical substance/The level of expressed mRNA in the absence of chemical substance: 1.0
Yeast gene YKL164C
  The level of expressed mRNA in the presence of chemical substance/ (ratio to absence of chemical substance): 1.2
Yeast gene YKL165C
  The level of expressed mRNA in the presence of chemical substance/The level of expressed mRNA in the absence of chemical substance: 2.1
Yeast gene YKL193C
  The level of expressed mRNA in the presence of chemical substance/The level of expressed mRNA in the absence of chemical substance: 1.2
Yeast gene YKR009C, ratio of DNA chip fluorescence intensity to that without chemical substance
  The level of expressed mRNA in the presence of chemical substance/ (in its absence), gene YKR009C: 1.0
Yeast gene YKR014C
  The level of expressed mRNA in the presence of chemical substance/The level of expressed mRNA in the absence of chemical substance: 1.4
Yeast gene YKR034W, ratio of DNA chip fluorescence intensity to that without chemical substance
  The level of expressed mRNA in the presence of chemical substance/ (in its absence), gene YKR034W: 1.7
Yeast gene YKR053C
  The level of expressed mRNA in the presence of chemical substance/ (ratio to absence of chemical substance): 0.3
Yeast gene YKR058W, energy system protein genes, 2 h culture with the chemical, ratio to control without chemical
  The level of expressed mRNA in the presence of chemical substance/ in its absence, gene YKR058W: 0.5
Yeast gene YLR006C, ratio of DNA chip fluorescence intensity to that without chemical substance
  The level of expressed mRNA in the presence of chemical substance/ (in its absence), gene YLR006C: 0.9
Yeast gene YLR006C
  The level of expressed mRNA in the presence of chemical substance/ (ratio to absence of chemical substance): 0.9
Yeast gene YLR093C
  The level of expressed mRNA in the presence of chemical substance/The level of expressed mRNA in the absence of chemical substance: 0.9
Yeast gene YLR120C
  The level of expressed mRNA in the presence of chemical substance/The level of expressed mRNA in the absence of chemical substance: 2.7
Yeast gene YLR136C
  The level of expressed mRNA in the presence of chemical substance/The level of expressed mRNA in the absence of chemical substance: 2.1
Yeast gene YLR178C
  The level of expressed mRNA in the presence of chemical substance/The level of expressed mRNA in the absence of chemical substance: 2.3
Yeast gene YLR250W
  The level of expressed mRNA in the presence of chemical substance/The level of expressed mRNA in the absence of chemical substance: 2.6
Yeast gene YLR295C, energy system protein genes, 2 h culture with the chemical, ratio to control without chemical
  The level of expressed mRNA in the presence of chemical substance/ in its absence, gene YLR295C: 0.5
Yeast gene YLR295C, mitochondria-located protein genes, 2 h culture with chemical
  The level of expressed mRNA in the presence of chemical substance/ (ratio to absence), gene YLR295C: 0.5
Yeast gene YLR327C
  The level of expressed mRNA in the presence of chemical substance/The level of expressed mRNA in the absence of chemical substance: 0.8
Yeast gene YLR351C, ratio of DNA chip fluorescence intensity to that without chemical substance
  The level of expressed mRNA in the presence of chemical substance/ (in its absence), gene YLR351C: 1.2
Yeast gene YLR356W
  The level of expressed mRNA in the presence of chemical substance/The level of expressed mRNA in the absence of chemical substance: 2.8
Yeast gene YLR362W
  The level of expressed mRNA in the presence of chemical substance/The level of expressed mRNA in the absence of chemical substance: 1.3
Yeast gene YLR375W, ratio of DNA chip fluorescence intensity to that without chemical substance
  The level of expressed mRNA in the presence of chemical substance/ (in its absence), gene YLR375W: 1.3
Yeast gene YLR391W
  The level of expressed mRNA in the presence of chemical substance/The level of expressed mRNA in the absence of chemical substance: 3.9
Yeast gene YLR429W
  The level of expressed mRNA in the presence of chemical substance/The level of expressed mRNA in the absence of chemical substance: 1.5
Yeast gene YML129C, energy system protein genes, 2 h culture with the chemical, ratio to control without chemical
  The level of expressed mRNA in the presence of chemical substance/ in its absence, gene YML129C: 1.1
Yeast gene YML129C, mitochondria-located protein genes, 2 h culture with chemical
  The level of expressed mRNA in the presence of chemical substance/ (ratio to absence), gene YML129C: 1.1
Yeast gene YMR004W
  The level of expressed mRNA in the presence of chemical substance/The level of expressed mRNA in the absence of chemical substance: 1.3
Yeast gene YMR023C, mitochondria-located protein genes, 2 h culture with chemical
  The level of expressed mRNA in the presence of chemical substance/ (ratio to absence), gene YMR023C: 0.7
Yeast gene YMR094W
  The level of expressed mRNA in the presence of chemical substance/The level of expressed mRNA in the absence of chemical substance: 6.6
Yeast gene YMR104C
  The level of expressed mRNA in the presence of chemical substance/The level of expressed mRNA in the absence of chemical substance: 2.5
Yeast gene YMR186W
  The level of expressed mRNA in the presence of chemical substance/ (ratio to absence of chemical substance): 1.3
Yeast gene YMR219W
  The level of expressed mRNA in the presence of chemical substance/The level of expressed mRNA in the absence of chemical substance: 1.7
Yeast gene YMR226C
  The level of expressed mRNA in the presence of chemical substance/The level of expressed mRNA in the absence of chemical substance: 2.0
Yeast gene YMR267W, energy system protein genes, 2 h culture with the chemical, ratio to control without chemical
  The level of expressed mRNA in the presence of chemical substance/ in its absence, gene YMR267W: 0.9
Yeast gene YMR267W, mitochondria-located protein genes, 2 h culture with chemical
  The level of expressed mRNA in the presence of chemical substance/ (ratio to absence), gene YMR267W: 0.9
Yeast gene YMR267W, ratio of DNA chip fluorescence intensity to that without chemical substance
  The level of expressed mRNA in the presence of chemical substance/ in its absence, gene YMR267W: 0.9
Yeast gene YMR275C
  The level of expressed mRNA in the presence of chemical substance/The level of expressed mRNA in the absence of chemical substance: 1.7
Yeast gene YMR276W
  The level of expressed mRNA in the presence of chemical substance/The level of expressed mRNA in the absence of chemical substance: 3.3
Yeast gene YMR278W, ratio of DNA chip fluorescence intensity to that without chemical substance
  The level of expressed mRNA in the presence of chemical substance/ (in its absence), gene YMR278W: 1.8
Yeast gene YMR293C, ratio of DNA chip fluorescence intensity to that without chemical substance
  The level of expressed mRNA in the presence of chemical substance/ (in its absence), gene YMR293C: 0.7
